# Measured values published in paper PMC11413854, “Reversible Control of Native GluN2B-Containing NMDA Receptors with Visible Light” (ACS Chemical Neuroscience, 2024).
# Where “and” joins values, the source holds several entries; their conditions need not be identical. Identical values can stand only once.
# Tested on: native NMDA currents of cultured cortical neurons
# Assay: Whole-cell patch-clamp of NMDA currents in cultured cortical neurons (DIV 6-8), spectral dependence of bound OptoNAM-3
# Assay type: cell-based, mouse
# Conditions: for inhibition of NMDA currents in cortical neurons: 2 µM
# Protocol: We then turned to native NMDA currents. We repeated these experiments on cultured cortical neurons at days in vitro [DIV] 6–8, a stage at which GluN2B-containing NMDARs form the major population of neuronal NMDARs.[48] On cortical neurons, 2 μM OptoNAM-3 induced 70% inhibition of NMDA-induced currents in the dark. The lower inhibitory effect of trans-OptoNAM-3 on neurons compared to HEK cells is most likely due to the mixture of NMDAR subtypes expressed in neurons.[48] […] This effect is furthermore partially reversible thanks to the use of 550 nm light.
# Mice were housed in the IBENS rodent central facility duly accredited by the French Ministry of Agriculture. All experiments were performed in compliance with French and European regulations on care and protection of laboratory animals (EU Directive 2010/63, French Law 2013–118, February 6, 2013), and were approved by local ethics committees and by the French Ministry of Research and Innovation (authorization numbers #05137.02, APAFIS #28867-2020121814485893). Dissociated cultures of cortical neurons were prepared from mouse embryos at E18 as described previously.[84] After removing meninges, cortices were placed in ice-cold HBSS solution. Cell dissociation was performed individually for cortices of each embryo. Cortices were incubated in 2.5% trypsin at 37 °C for 7 min, rinsed three times with 37 °C phosphate buffer saline, and finally suspended in plating medium (Neurobasal Medium, supplemented with 0.5 mM L-glutamine, 1% B27 supplement, and penicillin/streptomycin). The neurons were further dissociated by trituration, and cells were plated on poly-D-lysine coated coverslips in 24-well culture dishes at a density of 3 × 10^5 cells per well for the excitotoxicity test and that of 1 × 10^5 cells per well for patch clamp experiments. Cultures were incubated at 37 °C in a humidified atmosphere of 5% CO2. Cells were fed by changing 1/2 medium to fresh Neurobasal medium every 4 days. For the excitotoxicity experiments, after 5 days in vitro, growth of non-neuronal cells was halted by a 24 h exposure to FDX ([…] 5-fluoro-2′-deoxyuridine). The cultures were used for experiments after 6 to 14 days in vitro (DIV6–8 for patch clamp experiments and DIV14 for excitotoxicity tests).
# Whole-cell patch-clamp recordings on neurons were performed 6 to 8 days after the culturing step (DIV 6–8) using the same recording conditions as for HEK cells. Recordings were performed at a holding potential of −60 mV and at room temperature. Currents were elicited by NMDA (300 μM) and D-serine (50 μM) to specifically activate NMDARs.
# OptoNAM-3 was perfused in the dark onto the patched neuron (Figure 5A–C). […] Stopping perfusion ensures that trans-OptoNAM coming from the perfusion tube […] with the wavelength PSS during the illumination procedure.
# OptoNAM-3 was perfused in the dark onto the patched neuron (Figures 4G,H and 5F,H). […] Then, wavelengths from 435 to 580 nm were applied and the inhibition recovery was monitored.
# For the trans to cis and cis to trans isomerization study in the binding site (Figure 5C,H respectively), we decided to normalize (scale) the inhibition values of OptoNAM-3 at different wavelengths by the inhibition induced by OptoNAM-3 at 365 nm and in the dark since these two conditions represent respectively the minimum and maximum of the inhibition. We followed this equation: [drawing 2] where m ∈ [r365,rdark] is the measurement (inhibition) to be scaled, r365 and rdark correspond to the minimum (365 nm state inhibition) and maximum (dark state inhibition) of the measurement, respectively, and t365 and tdark represent the minimum and maximum of the range (OptoNAM-3 365 nm PSS and dark PSS mean inhibition). To reduce the decreasing effect of normalization onto SEM, the SEMs represented in the figures were calculated with the data injected in the first part of the equation ( [drawing 3] ). […]
smiles,measurement,setting,value
"c1ccc(/N=N/c2ccc(CCNc3ccncc3)cc2)cc1 [OptoNAM-3, (E)-N-(4-(Phenyldiazenyl)phenethyl)pyridin-4-amine]",inhibition of NMDA currents in cortical neurons,365 nm irradiation on the cell (Fig 5C),27% ± 2%
same,inhibition of NMDA currents in cortical neurons,550 nm illumination from UV state (Fig 4H),52% ± 3% and 52.150%
same,inhibition of NMDA currents in cortical neurons,550 nm post 365 nm illumination (Fig 5H),55% ± 4%
same,inhibition of NMDA currents in cortical neurons,"dark, NMDA 300 µM + D-serine 50 µM",70% ± 3% and 70.580%
same,inhibition of NMDA currents in cortical neurons,under 365 nm illumination (Fig 4H),25% ± 4% and 25.090%
same,"proportion of cis isomer, bound OptoNAM-3 365 nm PSS","365 nm on the cell, calculated from inhibition",~90%
same,"proportion of cis isomer, bound OptoNAM-3","460 nm light from dark state, calculated from inhibition",~68%
same,trans-to-cis isomerization in the binding site,550 and 580 nm applied from the dark state,did not induce visible trans-to-cis isomerization
same,"% Inhibition (normalized), mean","Figure 5C series (from dark PSS), 365 nm",27.607%
same,"% Inhibition (normalized), mean","Figure 5C series (from dark PSS), 435 nm",44.741%
same,"% Inhibition (normalized), mean","Figure 5C series (from dark PSS), 460 nm",50.648%
same,"% Inhibition (normalized), mean","Figure 5C series (from dark PSS), 490 nm",64.437%
same,"% Inhibition (normalized), mean","Figure 5C series (from dark PSS), 525 nm",71.178%
same,"% Inhibition (normalized), mean","Figure 5C series (from dark PSS), 550 nm",73.370%
same,"% Inhibition (normalized), mean","Figure 5C series (from dark PSS), 580 nm",73.446%
same,"% Inhibition (normalized), mean","Figure 5C series, dark",73.585%
same,"% Inhibition (normalized), mean","Figure 5H series (from 365 nm PSS), 365 nm",27.795%
same,"% Inhibition (normalized), mean","Figure 5H series (from 365 nm PSS), 435 nm",27.982%
same,"% Inhibition (normalized), mean","Figure 5H series (from 365 nm PSS), 460 nm",29.032%
same,"% Inhibition (normalized), mean","Figure 5H series (from 365 nm PSS), 490 nm",44.081%
same,"% Inhibition (normalized), mean","Figure 5H series (from 365 nm PSS), 525 nm",43.503%
same,"% Inhibition (normalized), mean","Figure 5H series (from 365 nm PSS), 550 nm",54.910%
same,"% Inhibition (normalized), mean","Figure 5H series (from 365 nm PSS), 580 nm",47.001%
same,"% Inhibition (normalized), mean","Figure 5H series, dark",73.111%
same,"proportion of trans isomer, bound OptoNAM-3","at 365, 435 and 460 nm post 365 nm illumination, calculated from inhibition",~10%
